Patent publication US20240336556A1, “R-KETAMINE SALTS AND METHODS OF USE THEREOF” (Perception Neuroscience, Inc., priority 2021, published 2024)
Converted amounts (≈) assume the structure as drawn. Read-outs that look alike come from different tables or passages of the source.

Key:
[1] = Dynamic vapor sorption (DVS) and classification of hygroscopicity; assay type: physicochemical; conditions: for reversibility of water sorption: under the test conditions; for solid form of the sample after DVS: PXRD or FT-Raman on solid recovered after the DVS test
Method: DVS measurements were performed with an SPS11-100n “Sorptions Prüfsystem” from ProUmid (formerly “Projekt Messtechnik”), August-Nagel-Str. 23, 89079 Ulm (Germany). About 5-20 mg of sample were put into an aluminum sample pan. Humidity change rates of […] were used. The applied measurement program is described as follows:
The sample was placed on an aluminum or platinum holder on top of a microbalance and allowed to equilibrate at 50% RH before starting the pre-defined humidity programs: • (1) 2 h at 50% RH • (2) 50→0% RH (5%/h); 5 h at 0% RH • (3) 0→95% RH (5%/h); 5 h at 95% RH • (4) 95→0% RH (5%/h); 5 h at 0% RH • (5) 0→95% RH (5%/h); 5 h at 95% RH • (6) 95→50% RH (5%/h); 2 h at 50% RH
The hygroscopicity was classified based on the mass gain at 85% RH relative to the initial mass as follows: deliquescent (sufficient water adsorbed to form a liquid), very hygroscopic (mass increase of ≥15%), hygroscopic (mass increase <15% but ≥2%), slightly hygroscopic (mass increase <2% but ≥0.2%), or non-hygroscopic (mass increase <0.2%).

[2] = Storage in a closed vial at ambient conditions, reanalysis by PXRD; assay type: physicochemical
Method: Stoe Stadi P equipped with a Mythen1K Detector; Cu-Kα1 radiation; standard measurement conditions: transmission; 40 kV and 40 mA tube power; curved Ge monochromator; 0.02°2θ step size, 48 s step time, 1.5-50.5°2θ scanning range; detector mode: step scan; 1 °2θ detector step; standard sample preparation: 10 to 20 mg sample was placed between two acetate foils; sample holder: Stoe transmission sample holder; the sample was rotated during the measurement. All sample preparation and measurement was done in an ambient air atmosphere.

[3] = Precise solubility tests of R-ketamine fumarate salt Form A in aqueous media at adjusted pH (HPLC); conditions: for solubility: aqueous, equilibrated one day, HPLC
[4] = HPLC precise solubility determination of R-ketamine salts in water at 25° C., with pH of the saturated solution; conditions: for Initial pH / pH after 24 hours: saturated solution in water, pH determined at 24° C.; for solubility / solubility in water: 25° C.; for solubility: equilibrated one day, HPLC of the saturated solution, values marked * may be underestimated; for solubility in water: one day equilibration, HPLC
Method: 50 mg of R-ketamine saccharin salt was suspended in 0.5 mL of water, and the suspension was equilibrated (700 rpm) at 25° C. for one day. 10 to 15 mg of R-ketamine fumarate salt and R-ketamine oxalate salt were also equilibrated in 0.5 mL of water at 25° C. for one day.

[5] = Approximate solubility in 20% (w/w) aqueous (2-Hydroxypropyl)-Beta-cyclodextrin solution and in 20% (w/w) cyclodextrin in buffer pH 7, with pH of the solutions; conditions: for Approximate Solubility: ambient conditions, visual estimate
Method: These values were determined by adding small aliquots of solvent or solvent mixture to ˜10 mg of solid and shaking/sonicating for a short period of time at ambient conditions. The solubilities were estimated by visual observations. These values are only approximations. Table 20 summarized the obtained solubility values, and the pH of the resulting solutions.

[6] = water, at 23° C.
[7] = Approximate solubility determination (small aliquots of solvent added to ~10 mg of solid, ambient conditions); assay type: physicochemical; conditions: thermodynamic from solid, approximation
Method: Approximate solubilities were determined for the R-ketamine free base. […] These values are only approximations.

[8] = DVS, above 70% relative humidity
[9] = obtained solution in 20% (w/w) aqueous cyclodextrin, measured at 24° C.
[10] = obtained solution in 20% (w/w) cyclodextrin in buffer pH 7, measured at 24° C.

CN[C@@]1(c2ccccc2Cl)CCCCC1=O.O=C(O)C(O)C(O)C(=O)O [R-ketamine D-tartrate salt Form B]
water content reached [1, 8]: about 8.5% | reversibility of water sorption ([1]; DVS): irreversible | solid form after storage (PXRD) ([2]; 12 months, ambient conditions): corresponding to R-ketamine D-tartrate salt Form B

CN[C@@]1(c2ccccc2Cl)CCCCC1=O.O=C(O)C(O)C(O)C(=O)O [R-ketamine D-tartrate salt Form A]
additional water uptake [1, 8]: about 3% | reversibility of water sorption ([1]; DVS): irreversible | solid form after storage (PXRD) ([2]; 13 months, ambient conditions): corresponding to R-ketamine D-tartrate salt Form A

CN[C@@]1(c2ccccc2Cl)CCCCC1=O.CN[C@@]1(c2ccccc2Cl)CCCCC1=O.O=C(O)/C=C/C(=O)O [R-ketamine fumarate salt Form A]
solubility ([3]; pH 5.23, r.t.): 304 mg/mL | solubility ([3]; pH 6.14, r.t.): 15.1 mg/mL | solubility ([3]; pH 7.21, r.t.): 1.76 mg/mL | pH on dissolution in pure water ([3]; pure water, from approximate solubility tests): about 5.7 | dependence of aqueous solubility on pH ([3]; water adjusted to pH 5, 6, 7, one day at 25° C.): solubility rapidly deceases by increasing pH | Initial pH ([4]; after 3 h): 4.1 (after 3 h) | pH after 24 hours [4]: 4.1 | solubility ([4]; water): 17.7* mg/mL | solubility in water ([4]; water): higher than the solubility of the R-ketamine saccharin salt | reversibility of water sorption ([1]; DVS): lost all its water when the humidity is scanned back to 0% r.h. | solid form of the sample after DVS [1]: no change in the crystalline form was observed

CN[C@@]1(c2ccccc2Cl)CCCCC1=O.O=C(O)C(=O)O [R-ketamine oxalate salt]
Initial pH ([4]; after 3 h): 5.6 (after 3 h) | pH after 24 hours [4]: 5.7 | solubility ([4]; water): 19.2* mg/mL | solubility in water ([4]; water): higher than the solubility of the R-ketamine saccharin salt | pH of the saturated solution ([4]; water, after one day stirring, pH measured at 24° C.): 5.7 | hygroscopicity class ([1]; DVS): very hygroscopic (very hygroscopic (mass increase of ≥15%)) | solid form of the sample after DVS [1]: dramatically loss of crystallinity was observed

CN[C@@]1(c2ccccc2Cl)CCCCC1=O.O=C1NS(=O)(=O)c2ccccc21 [R-ketamine saccharin salt]
Approximate Solubility ([5]; 20% (w/w) aqueous cyclodextrin): 28~37 mg/mL | Approximate Solubility ([5]; 20% (w/w) cyclodextrin in buffer pH 7 solution): 26~35 mg/mL | pH [5, 9]: 5 | pH [5, 10]: 6.3 | Initial pH ([4]; after 1 h): 4.2 (after 1 h) | pH after 24 hours [4]: 4.0 | solubility ([4]; water): 6.64 mg/mL | solubility in water ([4]; water): 6.6 mg/mL | hygroscopicity class ([1]; DVS): non-hygroscopic (non-hygroscopic (mass increase <0.2%)) | solid form of the sample after DVS [1]: no change in the solid form was observed

CN[C@@]1(c2ccccc2Cl)CCCCC1=O.O=C(O)C(O)C(O)C(=O)O [R-ketamine D-tartrate salt Form D]
additional water absorbed ([1]; DVS, at high relative humidity): About 0.4%

CN[C@@]1(c2ccccc2Cl)CCCCC1=O.O=C(O)C(O)C(O)C(=O)O [R-ketamine D-tartrate salt Form C]
pH of the suspension ([6]; after 24 hours of stirring): 3.42 | pH of the suspension ([6]; after one hour): 3.48 | water content reached [1, 8]: about 8.3% | reversibility of water sorption ([1]; DVS): irreversible

CN[C@@]1(c2ccccc2Cl)CCCCC1=O.O=C(O)/C=C/C(=O)O [R-ketamine fumarate salt Form B]
solid form after storage (PXRD) ([2]; 11 months, ambient condition): a mixture of the R-ketamine fumarate salt Form A and B (about 1:1)

CN[C@@]1(c2ccccc2Cl)CCCCC1=O [R-ketamine free base, (2R)-2-(2-chlorophenyl)-2-(methylamino)cyclohexan-1-one]
solubility ([5]; 20% (w/w) (2-hydroxypropyl)-beta-cyclodextrin in buffer pH 7, pH 7, aqueous with cosolvent or surfactant or cyclodextrin, thermodynamic from solid): 2 to 2.5 mg/mL (≈ 8.41 to 10.5 mM) | solubility ([5]; aqueous with cosolvent or surfactant or cyclodextrin, thermodynamic from solid): 1.5 to 1.7 mg/mL (≈ 6.31 to 7.15 mM) | pH [5, 9]: 8.5 | pH [5, 10]: 7.1 | solubility ([7]; aqueous with cosolvent or surfactant or cyclodextrin, 20% (2-hydroxypropyl)-beta-cyclodextrin in water): 1.4 to 1.7 mg/mL (≈ 5.89 to 7.15 mM) | solubility ([7]; organic solvent or mixture, 1-propanol): 60 to 79 mg/mL (≈ 252 to 332 mM) | solubility ([7]; organic solvent or mixture, 2-propanol): 37 to 44 mg/mL (≈ 156 to 185 mM) | solubility ([7]; organic solvent or mixture, Acetone): 111 to 222 mg/mL (≈ 467 to 934 mM) | solubility ([7]; organic solvent or mixture, Acetonitrile): 89 to 133 mg/mL (≈ 374 to 559 mM) | solubility ([7]; organic solvent or mixture, Ethanol): 62 to 83 mg/mL (≈ 261 to 349 mM) | solubility ([7]; organic solvent or mixture, Ethyl acetate): 115 to 230 mg/mL (≈ 484 to 967 mM) | solubility ([7]; organic solvent or mixture, Heptane): 5 to 9 mg/mL (≈ 21 to 37.9 mM) | solubility ([7]; organic solvent or mixture, Methanol): 120 to 240 mg/mL (≈ 505 to 1010 mM) | solubility ([7]; organic solvent or mixture, THF): > 288 mg/mL | solubility ([7]; Water): < 1 mg/mL

CNC1(c2ccccc2Cl)CCCCC1=O.Cl (centres unmarked) [R-ketamine hydrochloride salt, reference compound]
solubility ([5]; aqueous 20% (2-hydroxypropyl)-beta-cyclodextrin solution): *The solubility of the HCl R-ketamine salt was over 100 mg/mL in aqueous 20% (2-hydroxypropyl)-beta-cyclodextrin solution.
